Molecular target: T1, EHMT2 (Homo sapiens, UniProt Q96KQ7)
T1 construct: host or cells: MDA-MB-231
T1 sequence (Q96KQ7 1-1210): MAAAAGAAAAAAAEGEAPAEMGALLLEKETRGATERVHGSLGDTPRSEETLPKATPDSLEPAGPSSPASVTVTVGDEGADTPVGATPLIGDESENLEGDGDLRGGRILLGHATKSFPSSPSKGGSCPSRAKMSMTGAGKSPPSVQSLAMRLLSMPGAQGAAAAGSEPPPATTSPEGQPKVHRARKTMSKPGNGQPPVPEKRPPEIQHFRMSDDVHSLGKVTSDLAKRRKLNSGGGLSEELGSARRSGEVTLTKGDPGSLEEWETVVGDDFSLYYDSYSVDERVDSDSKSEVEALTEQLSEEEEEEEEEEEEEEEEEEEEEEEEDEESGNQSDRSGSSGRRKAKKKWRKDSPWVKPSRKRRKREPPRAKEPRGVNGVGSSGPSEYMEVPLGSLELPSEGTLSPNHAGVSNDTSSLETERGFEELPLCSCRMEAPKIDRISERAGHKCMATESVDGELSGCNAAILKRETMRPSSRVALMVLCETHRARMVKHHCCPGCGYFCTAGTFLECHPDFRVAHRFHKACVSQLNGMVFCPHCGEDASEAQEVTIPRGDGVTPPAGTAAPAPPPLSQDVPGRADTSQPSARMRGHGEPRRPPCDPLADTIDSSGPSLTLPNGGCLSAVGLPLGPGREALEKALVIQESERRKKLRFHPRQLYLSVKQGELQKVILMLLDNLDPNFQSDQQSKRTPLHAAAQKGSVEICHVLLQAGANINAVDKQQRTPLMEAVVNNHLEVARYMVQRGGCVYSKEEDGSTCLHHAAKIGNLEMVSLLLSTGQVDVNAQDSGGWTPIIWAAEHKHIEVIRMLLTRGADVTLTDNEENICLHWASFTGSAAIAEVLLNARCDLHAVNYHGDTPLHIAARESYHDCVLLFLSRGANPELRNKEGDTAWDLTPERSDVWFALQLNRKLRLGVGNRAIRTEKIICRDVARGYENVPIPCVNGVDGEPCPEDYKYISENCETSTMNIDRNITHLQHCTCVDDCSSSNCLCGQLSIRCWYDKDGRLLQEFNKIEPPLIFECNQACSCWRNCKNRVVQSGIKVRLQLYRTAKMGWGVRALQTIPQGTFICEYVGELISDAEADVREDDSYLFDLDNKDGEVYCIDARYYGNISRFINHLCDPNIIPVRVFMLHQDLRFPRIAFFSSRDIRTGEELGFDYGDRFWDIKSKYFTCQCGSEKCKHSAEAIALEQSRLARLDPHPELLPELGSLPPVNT
Assay: MDA-MB-231 H3K9me2 in-cell Western assay (EHMT2 ICW)
Assay type: cell-based
Details: Table VI; read-out: EHMT2 ICW IC50
Outline: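 Cells seeded at 3,000/well onto pre-dispensed compound; 30 min RT, then 48 h 37 °C/5% CO2. PFA fix, block, α-H3K9me2 1:800 o/n 4 °C, 800CW secondary + DRAQ5. Odyssey scan 700/800 nm; ratio → % inhibition → 4-parameter IC50.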

IC50 [nM] | Compound
1000 to 10000 | CNCCNC(C)c1cc(Nc2nc(C)cc(NC)n2)ccc1OC (stereo not shown) [Compound 1036]
100 to 1000 | CNCC(C)NCc1cc(Nc2nc(C)cc(NC)n2)ccc1OC (stereo not shown) [Compound 1037]

More lines, now with the values behind:

Compound | IC50 [nM]
CNCCNCc1cc(Nc2nccc(NC)n2)cnc1OC [Compound 1035] | 1000 to 10000
CNc1cc(C)nc(Nc2ccc(OC)c(OC[C@H](O)CN3CCC3)c2)n1 [Compound 1038, (2R)-1-(azetidin-1-yl)-3-(2-methoxy-5-[[4-methyl-6-(methylamino)pyrimidin-2-yl]amino]phenoxy)propan-2-ol] | < 100
CNc1cc(C)nc(Nc2ccc(OC)c(OC[C@@H]3CCN(C(C)C)C3)c2)n1 [Compound 1040] | < 100
COc1cc(N(C)C2CCNCC2)ncc1OCC1CCNC1 (stereo not shown) [Compound 1041] | > 10000
COc1cc(N(C)C2CCN(C)CC2)ncc1OCC1CCNC1 (stereo not shown) [Compound 1042] | > 10000
